Data from article PMC5218480 (PLoS ONE, 2017).

System: MV-4-11 cells
Assay: Gene expression microarray analysis (Affymetrix PrimeView) and GSEA
Format: cell-based, human
Set-up: RFU PODN (11730768_x_at) / Fold change /veh PODN (11730768_x_at) / RFU LINC00158 (11744669_a_at) / Fold change /veh LINC00158 (11744669_a_at) / RFU DUSP10 (11751237_a_at) / Fold change /veh DUSP10 (11751237_a_at) / RFU ID3 (11757404_x_at) / Fold change /veh ID3 (11757404_x_at) / RFU PLEKHG5 (11737974_s_at) / Fold change /veh PLEKHG5 (11737974_s_at) / RFU LRRC4B (11730491_at) / Fold change /veh LRRC4B (11730491_at) / RFU GIMAP4 (11747438_a_at) / Fold change /veh GIMAP4 (11747438_a_at) / RFU KRT8 (11758183_x_at) / Fold change /veh KRT8 (11758183_x_at) / RFU CNN1 (11734310_a_at) / Fold change /veh CNN1 (11734310_a_at) / RFU VPS37D (11726825_at) / Fold change /veh VPS37D (11726825_at) / RFU C10orf10 (11716522_x_at) / Fold change /veh C10orf10 (11716522_x_at) / RFU KIR2DL2 /// KIR2DL4 /// KIR2DL5A /// KIR2DL5B /// KIR2DS1 /// KIR2DS2 /// KIR2DS3 /// KIR2DS4 /// KIR3DL3 /// KIR3DL3 /// KIR3DS1 (11738374_at) / Fold change /veh KIR2DL2 /// KIR2DL4 /// KIR2DL5A /// KIR2DL5B /// KIR2DS1 /// KIR2DS2 /// KIR2DS3 /// KIR2DS4 /// KIR3DL3 /// KIR3DL3 /// KIR3DS1 (11738374_at) / RFU C1QL1 (11718748_at) / Fold change /veh C1QL1 (11718748_at) / RFU TMPRSS4 (11747572_a_at) / Fold change /veh TMPRSS4 (11747572_a_at) / RFU HAMP (11756126_x_at) / Fold change /veh HAMP (11756126_x_at) / RFU RNFT2 (11725882_a_at) / Fold change /veh RNFT2 (11725882_a_at) / RFU NR4A2 (11747474_a_at) / Fold change /veh NR4A2 (11747474_a_at) / RFU ABCC12 (11746883_a_at) / Fold change /veh ABCC12 (11746883_a_at) / RFU TMEM136 (11760407_x_at) / Fold change /veh TMEM136 (11760407_x_at) / RFU CLDN22 /// WWC2 (11732394_at) / Fold change /veh CLDN22 /// WWC2 (11732394_at) / RFU HLA-DPB1 (11760878_x_at) / Fold change /veh HLA-DPB1 (11760878_x_at) / RFU SPINT1 (11716480_a_at) / Fold change /veh SPINT1 (11716480_a_at) / RFU GAP43 (11754022_s_at) / Fold change /veh GAP43 (11754022_s_at) / RFU A4GNT (11735810_at) / Fold change /veh A4GNT (11735810_at) / RFU PRB3 (11715151_x_at) / Fold change /veh PRB3 (11715151_x_at) / RFU TUBB4B (11761932_at) / Fold change /veh TUBB4B (11761932_at) / RFU CAPN14 (11732068_a_at) / Fold change /veh CAPN14 (11732068_a_at) / RFU TMCC2 (11721928_a_at) / Fold change /veh TMCC2 (11721928_a_at) / RFU IRGQ (11745062_a_at) / Fold change /veh IRGQ (11745062_a_at) / RFU FAM174B (11720279_a_at) / Fold change /veh FAM174B (11720279_a_at) / RFU TMPRSS4 (11748680_a_at) / Fold change /veh TMPRSS4 (11748680_a_at) / RFU FAM212B (11763350_a_at) / Fold change /veh FAM212B (11763350_a_at) / RFU PLEKHG5 (11743358_a_at) / Fold change /veh PLEKHG5 (11743358_a_at) / RFU ZSCAN30 (11745921_a_at) / Fold change /veh ZSCAN30 (11745921_a_at) / RFU CMKLR1 (11741424_a_at) / Fold change /veh CMKLR1 (11741424_a_at) / RFU LOC101060620 /// MAPK8IP1 (11723275_at) / Fold change /veh LOC101060620 /// MAPK8IP1 (11723275_at) / RFU SPTSSB (11747773_x_at) / Fold change /veh SPTSSB (11747773_x_at) / RFU PRSS12 (11739890_at) / Fold change /veh PRSS12 (11739890_at) / RFU BIN1 (11741810_x_at) / Fold change /veh BIN1 (11741810_x_at) / RFU WNT11 (11732464_a_at) / Fold change /veh WNT11 (11732464_a_at) / RFU C10orf10 (11716521_a_at) / Fold change /veh C10orf10 (11716521_a_at) / RFU C5orf56 (11738089_at) / Fold change /veh C5orf56 (11738089_at) / RFU CYB561 (11721691_x_at) / Fold change /veh CYB561 (11721691_x_at) / RFU ANKRD19P (11752326_a_at) / Fold change /veh ANKRD19P (11752326_a_at) / RFU OR2T12 /// OR2T33 /// OR2T8 (11738714_s_at) / Fold change /veh OR2T12 /// OR2T33 /// OR2T8 (11738714_s_at) / RFU VCAN (11748164_a_at) / Fold change /veh VCAN (11748164_a_at) / RFU JSRP1 (11732532_at) / Fold change /veh JSRP1 (11732532_at) / RFU KRTAP10-11 (11738290_x_at) / Fold change /veh KRTAP10-11 (11738290_x_at) / RFU MYO3A (11730013_a_at) / Fold change /veh MYO3A (11730013_a_at) / RFU EBF3 (11725865_a_at) / Fold change /veh EBF3 (11725865_a_at) / RFU CAMK2N1 (11719241_x_at) / Fold change /veh CAMK2N1 (11719241_x_at) / RFU C5orf56 (11738088_a_at) / Fold change /veh C5orf56 (11738088_a_at) / RFU OLFML3 (11715873_a_at) / Fold change /veh OLFML3 (11715873_a_at) / RFU LOC100653217 /// NTM (11731650_a_at) / Fold change /veh LOC100653217 /// NTM (11731650_a_at) / RFU MAPK11 (11762145_a_at) / Fold change /veh MAPK11 (11762145_a_at) / RFU FIZ1 (11724087_x_at) / Fold change /veh FIZ1 (11724087_x_at) / RFU OASL (11726364_x_at) / Fold change /veh OASL (11726364_x_at) / RFU SOX15 (11748057_x_at) / Fold change /veh SOX15 (11748057_x_at) / RFU CD79A (11719716_a_at) / Fold change /veh CD79A (11719716_a_at) / RFU HIST1H1D (11736915_at) / Fold change /veh HIST1H1D (11736915_at) / RFU CASKIN2 (11723855_a_at) / Fold change /veh CASKIN2 (11723855_a_at) / RFU LOC730098 (11760151_x_at) / Fold change /veh LOC730098 (11760151_x_at) / RFU OR4N2 (11742367_at) / Fold change /veh OR4N2 (11742367_at) / RFU PRRT2 (11749266_a_at) / Fold change /veh PRRT2 (11749266_a_at) / RFU SNX32 (11753110_a_at) / Fold change /veh SNX32 (11753110_a_at) / RFU CDHR5 (11726645_a_at) / Fold change /veh CDHR5 (11726645_a_at) / RFU RCAN1 (11760418_a_at) / Fold change /veh RCAN1 (11760418_a_at) / RFU FAM167A (11723789_a_at) / Fold change /veh FAM167A (11723789_a_at) / RFU FAM26E (11764081_at) / Fold change /veh FAM26E (11764081_at) / RFU ISYNA1 (11749810_s_at) / Fold change /veh ISYNA1 (11749810_s_at) / RFU ACY1 (11761880_at) / Fold change /veh ACY1 (11761880_at) / RFU 11764098_at / Fold change /veh 11764098_at / RFU SAMD14 (11745864_x_at) / Fold change /veh SAMD14 (11745864_x_at) / RFU NPB (11741838_a_at) / Fold change /veh NPB (11741838_a_at) / RFU TMPRSS6 (11731388_a_at) / Fold change /veh TMPRSS6 (11731388_a_at) / RFU KRTAP10-2 (11738614_at) / Fold change /veh KRTAP10-2 (11738614_at) / RFU ARHGAP8 /// PRR5-ARHGAP8 (11727945_x_at) / Fold change /veh ARHGAP8 /// PRR5-ARHGAP8 (11727945_x_at) / RFU KRTAP5-7 /// NADSYN1 (11734609_at) / Fold change /veh KRTAP5-7 /// NADSYN1 (11734609_at) / RFU RASL12 (11751679_a_at) / Fold change /veh RASL12 (11751679_a_at) / RFU CDKN2B (11736163_a_at) / Fold change /veh CDKN2B (11736163_a_at) / RFU PRF1 (11729649_at) / Fold change /veh PRF1 (11729649_at) / RFU, ZNF638 /// ZNF638-IT1 / Fold change vs veh, ZNF638 /// ZNF638-IT1 / RFU, PANK3 / Fold change vs veh, PANK3 / RFU, SH3YL1 / Fold change vs veh, SH3YL1 / RFU, ZEB2 / Fold change vs veh, ZEB2 / RFU, NRIP1 / Fold change vs veh, NRIP1 / RFU, PTTG1IP / Fold change vs veh, PTTG1IP / RFU, CAPN2 / Fold change vs veh, CAPN2 / RFU, MED14 / Fold change vs veh, MED14 / RFU, SNORA58 / Fold change vs veh, SNORA58 / RFU, C1orf63 / Fold change vs veh, C1orf63 / RFU, LRRFIP1 / Fold change vs veh, LRRFIP1 / RFU, NDUFAF7 / Fold change vs veh, NDUFAF7 / RFU, SLC12A2 / Fold change vs veh, SLC12A2 / RFU, IBTK / Fold change vs veh, IBTK / RFU, ESF1 / Fold change vs veh, ESF1 / Fold change vs veh, TMEM50B / RFU, TAOK1 / Fold change vs veh, TAOK1 / RFU, ACBD3 / Fold change vs veh, ACBD3 / RFU, TMA16 / Fold change vs veh, TMA16 / RFU, RWDD3 / Fold change vs veh, RWDD3 / RFU, BCAT1 / Fold change vs veh, BCAT1 / RFU, EDEM3 / Fold change vs veh, EDEM3 / RFU, TMEM33 / Fold change vs veh, TMEM33 / RFU, WDR75 / Fold change vs veh, WDR75 / RFU, AHCTF1 / Fold change vs veh, AHCTF1 / RFU, TFRC / Fold change vs veh, TFRC / RFU, ZDHHC17 / Fold change vs veh, ZDHHC17 / RFU, NOM1 / Fold change vs veh, NOM1 / RFU, ARL8B / Fold change vs veh, ARL8B / RFU, ZBTB11 / Fold change vs veh, ZBTB11 / RFU, TAMM41 / Fold change vs veh, TAMM41 / RFU, KIAA1704 /// LOC100996395 / Fold change vs veh, KIAA1704 /// LOC100996395 / RFU, ING1 / Fold change vs veh, ING1 / RFU, TRMT61B / Fold change vs veh, TRMT61B / RFU, FUBP3 / Fold change vs veh, FUBP3 / RFU, TP53 / Fold change vs veh, TP53 / RFU, TNKS2 / Fold change vs veh, TNKS2 / RFU, ZFP14 / Fold change vs veh, ZFP14 / RFU, ACTR2 / Fold change vs veh, ACTR2 / RFU, PPP3R1 / Fold change vs veh, PPP3R1 / RFU, PIK3R1 / Fold change vs veh, PIK3R1 / RFU, HNRNPA1 / Fold change vs veh, HNRNPA1 / RFU, RNF170 / Fold change vs veh, RNF170 / RFU, ZNF28 / Fold change vs veh, ZNF28 / RFU, RNGTT / Fold change vs veh, RNGTT / RFU, OGT / Fold change vs veh, OGT / RFU, BRD1 / Fold change vs veh, BRD1 / RFU, MARS / Fold change vs veh, MARS / RFU, ZNF655 / Fold change vs veh, ZNF655 / RFU, FAHD1 / Fold change vs veh, FAHD1 / RFU, BDP1 / Fold change vs veh, BDP1 / RFU, LRRCC1 / Fold change vs veh, LRRCC1 / RFU, ARID1A / Fold change vs veh, ARID1A / RFU, ZNF146 / Fold change vs veh, ZNF146 / RFU, ZNF330 / Fold change vs veh, ZNF330 / RFU, GPN3 / Fold change vs veh, GPN3 / RFU, C9orf123 / Fold change vs veh, C9orf123 / RFU, N4BP2L2 / Fold change vs veh, N4BP2L2 / RFU, ARFIP1 / Fold change vs veh, ARFIP1 / RFU, FAM179B / Fold change vs veh, FAM179B / RFU, BCL10 / Fold change vs veh, BCL10 / RFU, UHRF1BP1L / Fold change vs veh, UHRF1BP1L / RFU, BET1 / Fold change vs veh, BET1 / RFU, CNOT2 / Fold change vs veh, CNOT2 / RFU, ZNF268 / Fold change vs veh, ZNF268 / Fold change vs veh, ZNF507 / RFU, DGCR2 / Fold change vs veh, DGCR2 / RFU, WDSUB1 / Fold change vs veh, WDSUB1 / Fold change vs veh, HSP90B1 /// MIR3652 / RFU, ADSS / Fold change vs veh, ADSS / RFU, GK / Fold change vs veh, GK / RFU, ZNF148 / Fold change vs veh, ZNF148 / RFU, TAF9 / Fold change vs veh, TAF9 / RFU, SLC1A5 / Fold change vs veh, SLC1A5 / RFU, SLMO2 / Fold change vs veh, SLMO2 / RFU, ABCC4 / Fold change vs veh, ABCC4 / RFU, LOC101060439 /// RAP1B / Fold change vs veh, LOC101060439 /// RAP1B / RFU, RFX7 / Fold change vs veh, RFX7 / RFU, GTPBP10 / Fold change vs veh, GTPBP10 / RFU, CNEP1R1 / Fold change vs veh, CNEP1R1 / RFU, BIVM-ERCC5 /// ERCC5 / Fold change vs veh, BIVM-ERCC5 /// ERCC5 / RFU, ILF3 / Fold change vs veh, ILF3 / RFU 11762660_at / Fold change /veh 11762660_at / RFU VCAN (11757783_s_at) / Fold change /veh VCAN (11757783_s_at) / RFU DDX43 (11728927_at) / Fold change /veh DDX43 (11728927_at) / RFU KRT8 (11758188_x_at) / Fold change /veh KRT8 (11758188_x_at) / RFU NKD1 (11759106_at) / Fold change /veh NKD1 (11759106_at) / RFU SRD5A1 (11742802_a_at) / Fold change /veh SRD5A1 (11742802_a_at) / RFU TPSAB1 /// TPSB2 (11721975_s_at) / Fold change /veh TPSAB1 /// TPSB2 (11721975_s_at) / RFU GSTM3 (11746129_a_at) / Fold change /veh GSTM3 (11746129_a_at) / RFU IL23R (11737362_x_at) / Fold change /veh IL23R (11737362_x_at) / RFU TMEM51 (11727254_a_at) / Fold change /veh TMEM51 (11727254_a_at) / RFU PIWIL2 (11732686_x_at) / Fold change /veh PIWIL2 (11732686_x_at) / RFU ORM1 (11744905_x_at) / Fold change /veh ORM1 (11744905_x_at) / RFU CCDC152 (11743942_at) / Fold change /veh CCDC152 (11743942_at) / RFU ECM1 (11717891_a_at) / Fold change /veh ECM1 (11717891_a_at) / RFU IL23R (11748794_a_at) / Fold change /veh IL23R (11748794_a_at) / RFU TNFAIP8L3 (11732012_x_at) / Fold change /veh TNFAIP8L3 (11732012_x_at) / RFU MBOAT4 (11741988_at) / Fold change /veh MBOAT4 (11741988_at) / RFU 11764193_at / Fold change /veh 11764193_at / RFU TMEM53 (11763286_at) / Fold change /veh TMEM53 (11763286_at) / RFU MAGEB2 (11727129_at) / Fold change /veh MAGEB2 (11727129_at) / RFU TMEM200A (11744735_a_at) / Fold change /veh TMEM200A (11744735_a_at) / RFU CCDC152 (11751479_a_at) / Fold change /veh CCDC152 (11751479_a_at) / RFU FAM211A (11726209_a_at) / Fold change /veh FAM211A (11726209_a_at) / RFU RGS16 (11746705_a_at) / Fold change /veh RGS16 (11746705_a_at) / RFU VCAN (11755009_s_at) / Fold change /veh VCAN (11755009_s_at) / RFU RHOB (11743442_s_at) / Fold change /veh RHOB (11743442_s_at) / RFU RGS16 (11720943_a_at) / Fold change /veh RGS16 (11720943_a_at) / RFU RGS16 (11720944_at) / Fold change /veh RGS16 (11720944_at) / RFU, VPS4B / Fold change vs veh, VPS4B / RFU, CREB1 / Fold change vs veh, CREB1 / RFU, DNAJC13 / Fold change vs veh, DNAJC13 / RFU, GNAQ / Fold change vs veh, GNAQ / RFU, CDK5R1 / Fold change vs veh, CDK5R1 / RFU, ZRANB3 / Fold change vs veh, ZRANB3 / RFU, CUL4A / Fold change vs veh, CUL4A / RFU, CCNY / Fold change vs veh, CCNY / RFU, UFL1 / Fold change vs veh, UFL1 / RFU, COG3 / Fold change vs veh, COG3 / RFU, DIAPH2 / Fold change vs veh, DIAPH2 / RFU, SKA2 / Fold change vs veh, SKA2 / RFU, AFF3 / Fold change vs veh, AFF3 / RFU, LMF1 / Fold change vs veh, LMF1 / RFU, IPO11 / Fold change vs veh, IPO11 / RFU, DFFB / Fold change vs veh, DFFB / RFU, FOXP1 / Fold change vs veh, FOXP1 / RFU, CARD8 / Fold change vs veh, CARD8 / RFU, STRN3 / Fold change vs veh, STRN3 / RFU, ADK / Fold change vs veh, ADK / RFU, RASSF2 / Fold change vs veh, RASSF2 / RFU, WIPF1 / Fold change vs veh, WIPF1 / RFU, LARP1B / Fold change vs veh, LARP1B / RFU, RASA1 / Fold change vs veh, RASA1 / RFU, RB1 / Fold change vs veh, RB1 / RFU, PPFIA1 / Fold change vs veh, PPFIA1 / RFU, MAT2A / Fold change vs veh, MAT2A / RFU, CCT5 / Fold change vs veh, CCT5 / RFU, WDR92 / Fold change vs veh, WDR92 / RFU, CUX1 / Fold change vs veh, CUX1 / RFU, TTC7A / Fold change vs veh, TTC7A / RFU, TMEM135 / Fold change vs veh, TMEM135 / RFU, DEPTOR / Fold change vs veh, DEPTOR / RFU, CPM / Fold change vs veh, CPM / RFU, DNAJB6 / Fold change vs veh, DNAJB6 / RFU, CACNA2D3 / Fold change vs veh, CACNA2D3 / RFU, DTX4 / Fold change vs veh, DTX4 / RFU, TFCP2 / Fold change vs veh, TFCP2 / RFU, GMCL1 /// GMCL1P1 / Fold change vs veh, GMCL1 /// GMCL1P1 / RFU, AEBP2 / Fold change vs veh, AEBP2 / RFU, SNHG1 /// SNORD22 /// SNORD25 /// SNORD26 /// SNORD27 /// SNORD28 /// SNORD29 /// SNORD31 / Fold change vs veh, SNHG1 /// SNORD22 /// SNORD25 /// SNORD26 /// SNORD27 /// SNORD28 /// SNORD29 /// SNORD31 / Fold change (Aza/veh), C12orf56 (ProbeSet 11735607_a_at) / Fold change (ACY-1035/veh), C12orf56 (ProbeSet 11735607_a_at) / Fold change (Aza/veh), FGFR1OP (ProbeSet 11751329_s_at) / Fold change (ACY-1035/veh), FGFR1OP (ProbeSet 11751329_s_at) / Fold change (Aza/veh), VPS36 (ProbeSet 11739960_a_at) / Fold change (ACY-1035/veh), VPS36 (ProbeSet 11739960_a_at) / RFU SYPL1 (11715823_x_at) / Fold change /veh SYPL1 (11715823_x_at) / RFU IGFBP7 (11715501_s_at) / Fold change /veh IGFBP7 (11715501_s_at) / RFU REEP3 (11722064_at) / Fold change /veh REEP3 (11722064_at) / RFU IGLL1 (11728026_x_at) / Fold change /veh IGLL1 (11728026_x_at): dose or concentration left out as unconfirmed
Details: MV-4-11 cells, 48 hours

Compound: Nc1ccc(-c2cccs2)cc1NC(=O)c1ccc2c(c1)cc(C1CC1)n2CCN1CCOCC1 [ACY-1035]
- RFU FAM167A (11723789_a_at): 37.08 RFU
